PubChem BioAssay (NCI)
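GI50 is the concentration that inhibits growth by half. TGI marks complete inhibition of growth.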

Legend:
Test in all cases: DTP human tumour cell line panel, 384-well format
KM12 colon = test system: KM12 colon
MDA-MB-468 breast = test system: MDA-MB-468 breast
NCI-H460 NSCLC = test system: NCI-H460 NSCLC
HOP-62 NSCLC = test system: HOP-62 NSCLC
U251 glioblastoma = test system: U251 glioblastoma
HT29 colon = test system: HT29 colon
OVCAR-4 ovarian = test system: OVCAR-4 ovarian
PC-3 prostate = test system: PC-3 prostate
NCI-H522 lung = test system: NCI-H522 lung
UACC-257 melanoma = test system: UACC-257 melanoma
SN12C renal = test system: SN12C renal
A498 renal = test system: A498 renal
SW-620 colon = test system: SW-620 colon
OVCAR-3 ovarian = test system: OVCAR-3 ovarian
OVCAR-8 ovarian = test system: OVCAR-8 ovarian
CAKI-1 renal = test system: CAKI-1 renal
OVCAR-5 ovarian = test system: OVCAR-5 ovarian
DU-145 prostate = test system: DU-145 prostate
MDA-MB-435 melanoma = test system: MDA-MB-435 melanoma
A549 NSCLC = test system: A549 NSCLC
UO-31 renal = test system: UO-31 renal
M14 melanoma = test system: M14 melanoma
SK-MEL-28 melanoma = test system: SK-MEL-28 melanoma
UACC-62 melanoma = test system: UACC-62 melanoma
786-0 renal = test system: 786-0 renal
MDA-MB-231 breast = test system: MDA-MB-231 breast
CCRF-CEM leukemia = test system: CCRF-CEM leukemia
SNB-19 CNS = test system: SNB-19 CNS
HCT-15 colon = test system: HCT-15 colon
RPMI-8226 leukemia = test system: RPMI-8226 leukemia
BT-549 breast = test system: BT-549 breast
HOP-92 NSCLC = test system: HOP-92 NSCLC
LOX IMVI melanoma = test system: LOX IMVI melanoma
HL-60(TB) leukemia = test system: HL-60(TB) leukemia
SR leukemia = test system: SR leukemia
COLO 205 colon = test system: COLO 205 colon
NCI-H322M lung = test system: NCI-H322M lung
K-562 leukemia = test system: K-562 leukemia
HS 578T breast = test system: HS 578T breast
EKVX NSCLC = test system: EKVX NSCLC
RXF 393 renal = test system: RXF 393 renal
IGROV1 ovarian = test system: IGROV1 ovarian
SF-295 CNS = test system: SF-295 CNS
T-47D breast = test system: T-47D breast
NCI-H226 lung = test system: NCI-H226 lung
ACHN renal = test system: ACHN renal
SK-MEL-5 melanoma = test system: SK-MEL-5 melanoma

## CNC(=O)c1ccccc1Nc1nc(Nc2ccc3c(c2OC)CCC[C@H](N2CCN(CCO)CC2)C3)ncc1Cl
KM12 colon
  GI50: 955 nM
  TGI: 2630 nM
MDA-MB-468 breast
  GI50: 384 nM
  TGI: 1660 nM
NCI-H460 NSCLC
  GI50: 1140 nM
  TGI: 2480 nM
HOP-62 NSCLC
  GI50: 1430 nM
  TGI: 3170 nM
U251 glioblastoma
  GI50: 1430 nM
  TGI: 2830 nM
HT29 colon
  GI50: 303 nM
  TGI: 1350 nM
OVCAR-4 ovarian
  GI50: 1080 nM
  TGI: 2790 nM
PC-3 prostate
  GI50: 2020 nM
  TGI: 5060 nM
NCI-H522 lung
  GI50: 862 nM
  TGI: 2200 nM
UACC-257 melanoma
  GI50: 327 nM
  TGI: 993 nM
SN12C renal
  GI50: 1400 nM
  TGI: 4340 nM
A498 renal
  GI50: 488 nM
  TGI: 1700 nM
SW-620 colon
  GI50: 727 nM
  TGI: 2100 nM
OVCAR-3 ovarian
  GI50: 1180 nM
  TGI: 2770 nM
OVCAR-8 ovarian
  GI50: 1500 nM
  TGI: 3180 nM
CAKI-1 renal
  GI50: 511 nM
  TGI: 1920 nM
OVCAR-5 ovarian
  GI50: 925 nM
  TGI: 3480 nM
DU-145 prostate
  GI50: 728 nM
  TGI: 2600 nM
MDA-MB-435 melanoma
  GI50: 833 nM
  TGI: 3180 nM
A549 NSCLC
  GI50: 1080 nM
  TGI: 2330 nM
UO-31 renal
  GI50: 1080 nM
  TGI: 2290 nM
M14 melanoma
  GI50: 632 nM
  TGI: 1850 nM
SK-MEL-28 melanoma
  GI50: 1390 nM
  TGI: 2700 nM
UACC-62 melanoma
  GI50: 673 nM
  TGI: 1930 nM
786-0 renal
  GI50: 1160 nM
  TGI: 2410 nM
MDA-MB-231 breast
  GI50: 974 nM
  TGI: 2280 nM
CCRF-CEM leukemia
  GI50: 1860 nM
  TGI: 3320 nM
SNB-19 CNS
  GI50: 2200 nM
  TGI: 5900 nM
HCT-15 colon
  GI50: 533 nM
  TGI: 1730 nM
RPMI-8226 leukemia
  GI50: 1150 nM
  TGI: 2420 nM
BT-549 breast
  GI50: 1970 nM
  TGI: 5200 nM
HOP-92 NSCLC
  GI50: 985 nM
  TGI: 2250 nM
LOX IMVI melanoma
  GI50: 655 nM
  TGI: 1970 nM
HL-60(TB) leukemia
  GI50: 215 nM
  TGI: 551 nM
SR leukemia
  GI50: 18.6 nM
  TGI: 34.7 nM
COLO 205 colon
  GI50: 283 nM
  TGI: 960 nM
NCI-H322M lung
  GI50: 806 nM
  TGI: 2330 nM
K-562 leukemia
  GI50: 1430 nM
  TGI: 2820 nM
HS 578T breast
  GI50: 726 nM
  TGI: 2030 nM
EKVX NSCLC
  GI50: 236 nM
  TGI: 1320 nM
RXF 393 renal
  GI50: 565 nM
  TGI: 1710 nM
IGROV1 ovarian
  GI50: 800 nM
  TGI: 2760 nM
SF-295 CNS
  GI50: 1710 nM
  TGI: 3110 nM
T-47D breast
  GI50: 1280 nM
  TGI: 2710 nM
NCI-H226 lung
  GI50: 686 nM
  TGI: 2700 nM
ACHN renal
  GI50: 584 nM
  TGI: 2120 nM
SK-MEL-5 melanoma
  GI50: 879 nM
  TGI: 2150 nM
